In ChEMBL document CHEMBL3612056, “Mechanism studies on anti-HepG2 cell proliferation of phenanthroline derivatives as G-quadruplex DNA stabilizers” (Bioorg Med Chem Lett, 2015):
Calls of active or inactive are those of the source. The rule behind the calls is not given here.

Tests used:
HeLa = test: Cytotoxicity against human HeLa cells assessed as reduction in cell viability incubated for 72 hrs by MTT assay; assay type: functional, cell-based
DNA = test: Stabilization of human telomere promoter G-quadruplex DNA (unknown origin); assay type: nucleic-acid assay
HepG2 [1] = test: Induction of apoptosis in human HepG2 cells assessed as early apoptotic cells levels at 12 uM incubated for 3 days by Annexin-V-FITC and propidium iodide staining based flow cytometry (reference value: 2.9%); assay type: functional
HepG2 [2] = test: Induction of apoptosis in human HepG2 cells assessed as viable cells levels at 12 uM incubated for 2 days by Annexin-V-FITC and propidium iodide staining based flow cytometry (reference value: 97.9%); assay type: functional
HepG2 [3] = test: Induction of apoptosis in human HepG2 cells assessed as early apoptotic cells levels at 8 uM incubated for 3 days by Annexin-V-FITC and propidium iodide staining based flow cytometry (reference value: 2.9%); assay type: functional
HepG2 [4] = test: Induction of cell cycle arrest in human HepG2 cells assessed as accumulation at G2/M phase at 8 uM incubated for 2 days by propidium iodide staining based flow cytometry method (reference value: 10.75%); assay type: functional
HepG2 [5] = test: Induction of apoptosis in human HepG2 cells assessed as necrotic cells levels at 8 uM incubated for 3 days by Annexin-V-FITC and propidium iodide staining based flow cytometry (reference value: 3.8%); assay type: functional
HepG2 [6] = test: Reduction in TERT protein expression in human HepG2 cells at 2 to 12 uM incubated for 2 days by Western blot method; assay type: functional, cell-based
HepG2 [7] = test: Induction of apoptosis in human HepG2 cells assessed as early apoptotic cells levels at 8 uM incubated for 2 days by Annexin-V-FITC and propidium iodide staining based flow cytometry (reference value: 0.3%); assay type: functional
HepG2 [8] = test: Reduction in c-Myc gene expression in human HepG2 cells at 2 to 16 uM incubated for 2 days by RT-PCR method; assay type: functional, cell-based
HepG2 [9] = test: Induction of apoptosis in human HepG2 cells assessed as late apoptotic cells levels at 12 uM incubated for 3 days by Annexin-V-FITC and propidium iodide staining based flow cytometry (reference value: 3.9%); assay type: functional
HepG2 [10] = test: Induction of apoptosis in human HepG2 cells assessed as late apoptotic cells levels at 8 uM incubated for 3 days by Annexin-V-FITC and propidium iodide staining based flow cytometry (reference value: 3.9%); assay type: functional
HepG2 [11] = test: Increase in p53 protein expression in human HepG2 cells at 8 and 12 uM incubated for 2 days by Western blot method; assay type: functional, cell-based
HepG2 [12] = test: Reduction in Sp1 protein expression in human HepG2 cells at 8 and 12 uM incubated for 2 days by Western blot method; assay type: functional, cell-based
HepG2 [13] = test: Inhibition of telomeric DNA elongation in human HepG2 cells at 0.5 uM incubated for 17 days by telomere restriction fragment length assay; assay type: functional, cell-based
HepG2 [14] = test: Induction of apoptosis in human HepG2 cells assessed as necrotic cells levels at 12 uM incubated for 3 days by Annexin-V-FITC and propidium iodide staining based flow cytometry (reference value: 3.8%); assay type: functional
HepG2 [15] = test: Induction of apoptosis in human HepG2 cells assessed as viable cells levels at 8 uM incubated for 2 days by Annexin-V-FITC and propidium iodide staining based flow cytometry (reference value: 97.9%); assay type: functional
HepG2 [16] = test: Induction of apoptosis in human HepG2 cells by Annexin-V-FITC and propidium iodide staining based flow cytometry; assay type: functional, cell-based
HepG2 [17] = test: Induction of cell cycle arrest in human HepG2 cells assessed as accumulation at S phase at 8 uM incubated for 2 days by propidium iodide staining based flow cytometry method (reference value: 24.65%); assay type: functional
HepG2 [18] = test: Induction of apoptosis in human HepG2 cells assessed as necrotic cells levels at 8 uM incubated for 2 days by Annexin-V-FITC and propidium iodide staining based flow cytometry (reference value: 1.4%); assay type: functional
HepG2 [19] = test: Induction of apoptosis in human HepG2 cells assessed as necrotic cells levels at 12 uM incubated for 2 days by Annexin-V-FITC and propidium iodide staining based flow cytometry (reference value: 1.4%); assay type: functional
HepG2 [20] = test: Reduction in cyclin D1/CDK4 protein expression in human HepG2 cells incubated for 2 days by Western blot method; assay type: functional, cell-based
[21] = Stabilization of c-myc promoter G-quadruplex DNA (unknown origin)
HepG2 [22] = test: Reduction in cyclin B1/CDK1 protein expression in human HepG2 cells incubated for 2 days by Western blot method; assay type: functional, cell-based
HepG2 [23] = test: Induction of cell cycle arrest in human HepG2 cells assessed as accumulation at G0/G1 phase at 4 uM incubated for 2 days by propidium iodide staining based flow cytometry method (reference value: 64.6%); assay type: functional
HepG2 [24] = test: Induction of apoptosis in human HepG2 cells assessed as late apoptotic cells levels at 12 uM incubated for 2 days by Annexin-V-FITC and propidium iodide staining based flow cytometry (reference value: 0.5%); assay type: functional
HepG2 [25] = test: Induction of apoptosis in human HepG2 cells assessed as viable cells levels at 8 uM incubated for 3 days by Annexin-V-FITC and propidium iodide staining based flow cytometry (reference value: 89.3%); assay type: functional
HepG2 [26] = test: Inhibition of cell proliferation of human HepG2 cells at 0.5 uM incubated for 12 days by long-term cell growth inhibition assay; assay type: functional, cell-based
HepG2 [27] = test: Reduction in c-Myc protein expression in human HepG2 cells at 2 to 12 uM incubated for 2 days by Western blot method; assay type: functional, cell-based
HepG2 [28] = test: Effect on TERT gene expression in human HepG2 cells at 2 to 16 uM incubated for 2 days by RT-PCR method; assay type: functional, cell-based
HepG2 [29] = test: Induction of cell cycle arrest in human HepG2 cells assessed as accumulation at S phase at 4 uM incubated for 2 days by propidium iodide staining based flow cytometry method (reference value: 24.65%); assay type: functional
HepG2 [30] = test: Induction of cell cycle arrest in human HepG2 cells assessed as accumulation at G0/G1 phase at 8 uM incubated for 2 days by propidium iodide staining based flow cytometry method (reference value: 64.6%); assay type: functional
MCF7 = test: Cytotoxicity against human MCF7 cells assessed as reduction in cell viability incubated for 72 hrs by MTT assay; assay type: functional, cell-based; conditions: MCF7, 72 h
HepG2 [31] = test: Induction of apoptosis in human HepG2 cells assessed as early apoptotic cells levels at 12 uM incubated for 2 days by Annexin-V-FITC and propidium iodide staining based flow cytometry (reference value: 0.3%); assay type: functional
HepG2 [32] = test: Induction of apoptosis in human HepG2 cells assessed as viable cells levels at 12 uM incubated for 3 days by Annexin-V-FITC and propidium iodide staining based flow cytometry (reference value: 89.3%); assay type: functional
HepG2 [33] = test: Cytotoxicity against human HepG2 cells assessed as reduction in cell viability incubated for 72 hrs by MTT assay; assay type: functional, cell-based; conditions: HepG2, 72 h
HepG2 [34] = test: Induction of cell cycle arrest in human HepG2 cells assessed as accumulation at G2/M phase at 4 uM incubated for 2 days by propidium iodide staining based flow cytometry method (reference value: 10.75%); assay type: functional
HepG2 [35] = test: Induction of apoptosis in human HepG2 cells assessed as late apoptotic cells levels at 8 uM incubated for 2 days by Annexin-V-FITC and propidium iodide staining based flow cytometry (reference value: 0.5%); assay type: functional
HepG2 [36] = test: Reduction in c-Myc protein expression in human HepG2 cells at 0.5 to 20 uM incubated for 2 days by Western blot method; assay type: functional, cell-based
HepG2 [37] = test: Induction of cell cycle arrest in human HepG2 cells assessed as accumulation at S phase at 8 uM incubated for 2 days by propidium iodide staining based flow cytometry method (reference value: 27.05%); assay type: functional
HepG2 [38] = test: Induction of cell cycle arrest in human HepG2 cells assessed as reduction in accumulation at S phase incubated for 2 days by propidium iodide staining based flow cytometry method; assay type: functional
HepG2 [39] = test: Induction of cell cycle arrest in human HepG2 cells assessed as increase in accumulation at G0/G1 phase incubated for 2 days by propidium iodide staining based flow cytometry method; assay type: functional
HepG2 [40] = test: Induction of cell cycle arrest in human HepG2 cells assessed as accumulation at G2/M phase at 8 uM incubated for 2 days by propidium iodide staining based flow cytometry method (reference value: 21.39%); assay type: functional
HepG2 [41] = test: Induction of cell cycle arrest in human HepG2 cells assessed as reduction in accumulation at G2/M phase incubated for 2 days by propidium iodide staining based flow cytometry method; assay type: functional
HepG2 [42] = test: Induction of cell cycle arrest in human HepG2 cells assessed as accumulation at S phase at 4 uM incubated for 2 days by propidium iodide staining based flow cytometry method (reference value: 27.05%); assay type: functional
HepG2 [43] = test: Induction of cell cycle arrest in human HepG2 cells assessed as accumulation at G2/M phase at 4 uM incubated for 2 days by propidium iodide staining based flow cytometry method (reference value: 21.39%); assay type: functional
HepG2 [44] = test: Reduction in TERT protein expression in human HepG2 cells at 0.5 to 20 uM incubated for 2 days by Western blot method; assay type: functional, cell-based
HepG2 [45] = test: Induction of cell cycle arrest in human HepG2 cells assessed as accumulation at G0/G1 phase at 4 uM incubated for 2 days by propidium iodide staining based flow cytometry method (reference value: 51.56%); assay type: functional
HepG2 [46] = test: Induction of cell cycle arrest in human HepG2 cells assessed as accumulation at G0/G1 phase at 8 uM incubated for 2 days by propidium iodide staining based flow cytometry method (reference value: 51.56%); assay type: functional

O=C(CCN1CCCC1)Nc1cccc(NC(=O)c2ccc3ccc4ccc(C(=O)Nc5cccc(NC(=O)CCN6CCCC6)n5)nc4c3n2)n1
IC50 (HeLa): 830 nM | Activity (DNA): Active | Activity (HepG2 [1]): 39.5% | Activity (HepG2 [2]): 81.7% | Activity (HepG2 [3]): 39.6% | Activity (HepG2 [4]): 19.17% | Activity (HepG2 [5]): 9.3% | inhibition (HepG2 [6]): Active | Activity (HepG2 [7]): 3.3% | inhibition (HepG2 [8]): Active | Activity (HepG2 [9]): 18.7% | Activity (HepG2 [10]): 17.4% | Activity (HepG2 [11]): Active | inhibition (HepG2 [12]): Dose-dependent effect | inhibition (HepG2 [13]): inactive | Activity (HepG2 [14]): 10.2% | Activity (HepG2 [15]): 84.2% | Activity (HepG2 [16]): Dose-dependent effect | Activity (HepG2 [17]): 38.57% | Activity (HepG2 [18]): 5% | Activity (HepG2 [19]): 5.2% | inhibition (HepG2 [20]): Dose-dependent effect | Activity [21]: Active | inhibition (HepG2 [22]): Dose-dependent effect | Activity (HepG2 [23]): 59.87% | Activity (HepG2 [24]): 8.2% | Activity (HepG2 [25]): 33.7% | inhibition (HepG2 [26]): Active | inhibition (HepG2 [27]): Active | Activity (HepG2 [28]): inactive | Activity (HepG2 [29]): 26.82% | Activity (HepG2 [30]): 42.26% | IC50 (MCF7): 1570 nM | Activity (HepG2 [31]): 4.9% | Activity (HepG2 [32]): 31.6% | IC50 (HepG2 [33]): 1260 nM | Activity (HepG2 [34]): 13.82% | Activity (HepG2 [35]): 7.5%

O=C(Nc1ccc(OCCN2CCCC2)cc1)c1ccc2ccc3ccc(C(=O)Nc4ccc(OCCN5CCCC5)cc4)nc3c2n1
IC50 (HeLa): 2100 nM | Activity (DNA): Active | Activity (HepG2 [1]): 73.9% | inhibition (HepG2 [36]): Active | Activity (HepG2 [37]): 19.9% | Activity (HepG2 [38]): Dose-dependent effect | Activity (HepG2 [2]): 65.1% | Activity (HepG2 [3]): 46.6% | Activity (HepG2 [5]): 5.2% | Activity (HepG2 [39]): Dose-dependent effect | Activity (HepG2 [7]): 10.8% | inhibition (HepG2 [8]): Active | Activity (HepG2 [9]): 10.7% | Activity (HepG2 [40]): 15.13% | Activity (HepG2 [41]): Dose-dependent effect | Activity (HepG2 [10]): 20% | Activity (HepG2 [42]): 25.69% | Activity (HepG2 [11]): Active | inhibition (HepG2 [12]): Dose-dependent effect | Activity (HepG2 [43]): 18.55% | inhibition (HepG2 [13]): inactive | Activity (HepG2 [14]): 1.1% | Activity (HepG2 [15]): 78.4% | Activity (HepG2 [16]): Dose-dependent effect | Activity (HepG2 [18]): 5.3% | Activity (HepG2 [19]): 6% | inhibition (HepG2 [20]): Dose-dependent effect | inhibition (HepG2 [44]): Active | Activity [21]: Active | Activity (HepG2 [45]): 55.76% | inhibition (HepG2 [22]): Dose-dependent effect | Activity (HepG2 [24]): 9.5% | Activity (HepG2 [25]): 28.2% | inhibition (HepG2 [26]): Active | Activity (HepG2 [28]): inactive | Activity (HepG2 [46]): 64.97% | IC50 (MCF7): 2000 nM | Activity (HepG2 [31]): 19.4% | Activity (HepG2 [32]): 14.4% | IC50 (HepG2 [33]): 500 nM | Activity (HepG2 [35]): 5.4%
